Experimental data reported in PMC11167047 (Cell Death Discovery, 2024).

Legend:
Experiment in all cases: kinome screen (33PanQinase)
Format in all cases: biochemical
CAMK2G = biological target: T1, CAMK2G (Homo sapiens, UniProt Q13555)
T1 construct: purchased Reaction Biology Europe GmbH (formerly ProQinase)
Experimental: (§1) The Kinome Screening was performed by Reaction Biology Europe GmbH (http://reactionbiology.com; Freiburg i. Br., Germany).

CDK17/p35NCK = biological target: T2, CDK17/p35NCK (Homo sapiens, UniProt Q00537)
T2 construct: purchased Reaction Biology Europe GmbH (formerly ProQinase)
Experimental: as §1

CDK6/CycD2 = biological target: T3, CDK6/CycD2 (Homo sapiens, UniProt Q00534)
T3 construct: purchased Reaction Biology Europe GmbH (formerly ProQinase)
Experimental: as §1

CDK6/CycD3 = biological target: T4, CDK6/CycD3 (Homo sapiens, UniProt Q00534)
T4 construct: purchased Reaction Biology Europe GmbH (formerly ProQinase)
Experimental: as §1

CK2α1 = biological target: T5, CK2α1 (Homo sapiens, UniProt P68400)
T5 construct: purchased Reaction Biology Europe GmbH (formerly ProQinase)
Experimental: as §1

DYRK1A = biological target: T6, DYRK1A (Homo sapiens, UniProt Q13627)
T6 construct: purchased Reaction Biology Europe GmbH (formerly ProQinase)
Experimental: as §1

EPHA2 = biological target: T7, EPHA2 (Homo sapiens, UniProt P29317)
T7 construct: purchased Reaction Biology Europe GmbH (formerly ProQinase)
Experimental: as §1

GSK3α = biological target: T8, GSK3α (Homo sapiens, UniProt P49840)
T8 construct: purchased Reaction Biology Europe GmbH (formerly ProQinase)
Experimental: as §1

HRI = biological target: T9, HRI (Homo sapiens, UniProt Q9BQI3)
T9 construct: purchased Reaction Biology Europe GmbH (formerly ProQinase)
Experimental: as §1

LCK = biological target: T10, LCK (Homo sapiens, UniProt P06239)
T10 construct: purchased Reaction Biology Europe GmbH (formerly ProQinase)
Experimental: as §1

MARK3 = biological target: T11, MARK3 (Homo sapiens, UniProt P27448)
T11 construct: purchased Reaction Biology Europe GmbH (formerly ProQinase)
Experimental: as §1

PAK4 = biological target: T12, PAK4 (Homo sapiens, UniProt O96013)
T12 construct: purchased Reaction Biology Europe GmbH (formerly ProQinase)
Experimental: as §1

ROS = biological target: T13, ROS (Homo sapiens, UniProt P08922)
T13 construct: purchased Reaction Biology Europe GmbH (formerly ProQinase)
Experimental: as §1

TAOK2 = biological target: T14, TAOK2 (Homo sapiens, UniProt Q9UL54)
T14 construct: purchased Reaction Biology Europe GmbH (formerly ProQinase)
T14 sequence (Q9UL54 1-1235): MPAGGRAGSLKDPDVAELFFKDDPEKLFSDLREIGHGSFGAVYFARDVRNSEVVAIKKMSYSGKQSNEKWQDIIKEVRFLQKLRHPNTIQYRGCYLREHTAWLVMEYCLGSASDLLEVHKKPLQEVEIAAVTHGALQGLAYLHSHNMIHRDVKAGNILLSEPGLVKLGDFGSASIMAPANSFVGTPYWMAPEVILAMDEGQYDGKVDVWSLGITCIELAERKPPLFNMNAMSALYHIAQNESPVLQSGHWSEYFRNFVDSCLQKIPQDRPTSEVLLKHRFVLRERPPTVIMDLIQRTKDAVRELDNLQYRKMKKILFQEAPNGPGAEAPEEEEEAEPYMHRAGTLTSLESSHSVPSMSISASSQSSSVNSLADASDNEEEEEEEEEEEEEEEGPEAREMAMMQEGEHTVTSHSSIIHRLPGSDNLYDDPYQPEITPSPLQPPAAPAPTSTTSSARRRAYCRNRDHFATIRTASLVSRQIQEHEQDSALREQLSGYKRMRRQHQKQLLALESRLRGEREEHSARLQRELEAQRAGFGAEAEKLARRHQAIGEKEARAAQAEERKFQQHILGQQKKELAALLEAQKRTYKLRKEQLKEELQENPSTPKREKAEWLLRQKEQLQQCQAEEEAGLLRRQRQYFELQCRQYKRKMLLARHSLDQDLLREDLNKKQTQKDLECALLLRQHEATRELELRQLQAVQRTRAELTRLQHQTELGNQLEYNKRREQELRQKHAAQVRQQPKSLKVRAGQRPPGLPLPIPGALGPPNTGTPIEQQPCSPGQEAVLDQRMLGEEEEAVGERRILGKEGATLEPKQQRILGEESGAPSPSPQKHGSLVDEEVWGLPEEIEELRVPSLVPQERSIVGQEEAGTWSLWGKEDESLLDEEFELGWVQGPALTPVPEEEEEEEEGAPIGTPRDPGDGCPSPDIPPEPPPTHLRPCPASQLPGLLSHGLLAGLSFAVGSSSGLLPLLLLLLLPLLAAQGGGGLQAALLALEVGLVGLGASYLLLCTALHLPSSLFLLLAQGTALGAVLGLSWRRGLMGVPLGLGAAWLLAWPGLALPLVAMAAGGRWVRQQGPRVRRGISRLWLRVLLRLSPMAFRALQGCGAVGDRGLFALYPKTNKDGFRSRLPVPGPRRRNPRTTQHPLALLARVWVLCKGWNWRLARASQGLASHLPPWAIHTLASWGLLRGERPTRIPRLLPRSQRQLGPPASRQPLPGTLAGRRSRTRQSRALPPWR
Experimental: as §1

T9 sequence (Q9BQI3 whole entry): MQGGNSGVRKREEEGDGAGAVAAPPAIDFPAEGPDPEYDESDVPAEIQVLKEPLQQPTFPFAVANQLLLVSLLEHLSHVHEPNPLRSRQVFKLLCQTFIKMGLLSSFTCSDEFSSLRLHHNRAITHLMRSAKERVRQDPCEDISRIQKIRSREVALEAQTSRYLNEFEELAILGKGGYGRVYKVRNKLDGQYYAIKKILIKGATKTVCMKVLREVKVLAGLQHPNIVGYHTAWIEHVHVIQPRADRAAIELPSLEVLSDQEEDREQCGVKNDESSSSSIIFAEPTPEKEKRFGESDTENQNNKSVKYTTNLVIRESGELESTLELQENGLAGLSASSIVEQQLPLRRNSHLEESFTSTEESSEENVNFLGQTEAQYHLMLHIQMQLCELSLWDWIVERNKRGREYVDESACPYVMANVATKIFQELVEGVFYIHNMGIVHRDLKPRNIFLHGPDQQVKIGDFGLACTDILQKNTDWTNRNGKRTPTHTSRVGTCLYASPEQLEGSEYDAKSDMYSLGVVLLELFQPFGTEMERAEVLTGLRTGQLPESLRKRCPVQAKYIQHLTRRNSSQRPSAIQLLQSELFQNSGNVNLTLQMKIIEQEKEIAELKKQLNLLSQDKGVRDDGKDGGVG
T11 sequence (P27448 whole entry): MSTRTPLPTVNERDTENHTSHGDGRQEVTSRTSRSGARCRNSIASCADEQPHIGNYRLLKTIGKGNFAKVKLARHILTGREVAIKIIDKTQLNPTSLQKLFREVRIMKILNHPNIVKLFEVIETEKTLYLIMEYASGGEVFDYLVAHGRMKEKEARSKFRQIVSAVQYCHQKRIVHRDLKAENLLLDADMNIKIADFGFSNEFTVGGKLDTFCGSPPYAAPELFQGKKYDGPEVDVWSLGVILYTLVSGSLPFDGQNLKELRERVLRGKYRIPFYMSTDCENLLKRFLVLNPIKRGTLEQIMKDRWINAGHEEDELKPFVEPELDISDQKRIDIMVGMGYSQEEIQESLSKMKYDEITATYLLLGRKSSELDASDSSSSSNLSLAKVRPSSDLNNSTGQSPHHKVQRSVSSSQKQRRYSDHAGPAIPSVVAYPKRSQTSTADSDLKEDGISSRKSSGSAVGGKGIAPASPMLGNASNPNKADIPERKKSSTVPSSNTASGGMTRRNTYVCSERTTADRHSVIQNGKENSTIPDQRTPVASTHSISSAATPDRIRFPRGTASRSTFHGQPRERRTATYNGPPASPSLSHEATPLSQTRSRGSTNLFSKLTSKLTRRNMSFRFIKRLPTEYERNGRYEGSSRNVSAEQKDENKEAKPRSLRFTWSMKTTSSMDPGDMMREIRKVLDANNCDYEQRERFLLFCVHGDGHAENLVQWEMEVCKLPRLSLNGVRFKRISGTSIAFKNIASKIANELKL
T13 sequence (P08922 28-2347): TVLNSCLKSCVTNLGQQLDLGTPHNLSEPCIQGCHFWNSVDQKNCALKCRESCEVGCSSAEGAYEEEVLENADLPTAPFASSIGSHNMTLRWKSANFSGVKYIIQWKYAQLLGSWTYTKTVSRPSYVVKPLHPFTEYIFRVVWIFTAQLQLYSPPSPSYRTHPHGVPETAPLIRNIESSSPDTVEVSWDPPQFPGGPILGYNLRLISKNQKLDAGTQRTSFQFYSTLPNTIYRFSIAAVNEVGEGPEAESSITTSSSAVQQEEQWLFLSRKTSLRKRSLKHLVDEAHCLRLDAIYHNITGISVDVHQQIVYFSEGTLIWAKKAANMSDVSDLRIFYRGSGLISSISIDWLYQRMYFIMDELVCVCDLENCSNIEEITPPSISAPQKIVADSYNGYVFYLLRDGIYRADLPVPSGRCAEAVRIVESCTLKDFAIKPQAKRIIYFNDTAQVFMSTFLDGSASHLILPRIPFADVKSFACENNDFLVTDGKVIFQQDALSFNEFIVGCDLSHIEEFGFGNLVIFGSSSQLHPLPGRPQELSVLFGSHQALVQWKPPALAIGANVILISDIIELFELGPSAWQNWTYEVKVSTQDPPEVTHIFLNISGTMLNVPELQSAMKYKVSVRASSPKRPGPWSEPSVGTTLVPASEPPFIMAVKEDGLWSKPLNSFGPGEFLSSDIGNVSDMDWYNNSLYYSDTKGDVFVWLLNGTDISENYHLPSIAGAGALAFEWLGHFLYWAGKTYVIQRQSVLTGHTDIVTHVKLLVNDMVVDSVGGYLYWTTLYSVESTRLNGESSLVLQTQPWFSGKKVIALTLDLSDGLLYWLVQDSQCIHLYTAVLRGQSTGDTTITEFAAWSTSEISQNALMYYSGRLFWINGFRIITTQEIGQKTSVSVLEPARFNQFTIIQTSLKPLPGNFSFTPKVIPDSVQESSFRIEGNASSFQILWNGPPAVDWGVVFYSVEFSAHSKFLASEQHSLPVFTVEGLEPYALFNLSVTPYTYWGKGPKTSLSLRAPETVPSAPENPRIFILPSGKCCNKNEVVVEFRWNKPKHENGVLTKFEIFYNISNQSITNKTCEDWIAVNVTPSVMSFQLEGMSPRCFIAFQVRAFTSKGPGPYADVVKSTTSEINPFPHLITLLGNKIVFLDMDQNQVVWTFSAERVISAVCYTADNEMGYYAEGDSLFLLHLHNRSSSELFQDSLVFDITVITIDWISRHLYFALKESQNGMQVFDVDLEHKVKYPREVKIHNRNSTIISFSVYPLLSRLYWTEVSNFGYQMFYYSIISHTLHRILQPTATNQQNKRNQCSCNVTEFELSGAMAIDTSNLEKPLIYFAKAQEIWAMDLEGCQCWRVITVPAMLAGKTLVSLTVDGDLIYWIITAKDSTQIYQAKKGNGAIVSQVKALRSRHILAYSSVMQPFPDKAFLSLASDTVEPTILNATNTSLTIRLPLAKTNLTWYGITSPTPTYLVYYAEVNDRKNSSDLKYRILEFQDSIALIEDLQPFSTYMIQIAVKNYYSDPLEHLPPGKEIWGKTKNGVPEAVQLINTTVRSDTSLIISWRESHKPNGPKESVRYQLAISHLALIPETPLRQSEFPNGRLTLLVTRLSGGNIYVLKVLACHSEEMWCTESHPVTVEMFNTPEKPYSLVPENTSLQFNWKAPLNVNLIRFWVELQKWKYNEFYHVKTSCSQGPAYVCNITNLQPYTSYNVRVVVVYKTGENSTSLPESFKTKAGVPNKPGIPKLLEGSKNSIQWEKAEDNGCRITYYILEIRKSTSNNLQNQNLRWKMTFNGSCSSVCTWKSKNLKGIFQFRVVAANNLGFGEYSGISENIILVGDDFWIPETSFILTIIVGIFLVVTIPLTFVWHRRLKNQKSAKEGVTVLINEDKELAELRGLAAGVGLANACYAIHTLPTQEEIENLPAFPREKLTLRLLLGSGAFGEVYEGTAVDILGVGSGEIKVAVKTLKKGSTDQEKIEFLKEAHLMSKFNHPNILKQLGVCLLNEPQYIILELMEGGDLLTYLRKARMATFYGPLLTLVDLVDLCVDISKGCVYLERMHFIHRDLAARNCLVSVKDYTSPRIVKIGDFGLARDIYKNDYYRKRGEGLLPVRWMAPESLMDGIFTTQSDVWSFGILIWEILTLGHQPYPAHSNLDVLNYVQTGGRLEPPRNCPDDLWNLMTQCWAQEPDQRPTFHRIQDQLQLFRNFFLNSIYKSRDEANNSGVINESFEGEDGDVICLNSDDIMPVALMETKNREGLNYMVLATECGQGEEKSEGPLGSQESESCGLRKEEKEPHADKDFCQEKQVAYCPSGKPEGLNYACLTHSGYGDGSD
T8 sequence (P49840 whole entry): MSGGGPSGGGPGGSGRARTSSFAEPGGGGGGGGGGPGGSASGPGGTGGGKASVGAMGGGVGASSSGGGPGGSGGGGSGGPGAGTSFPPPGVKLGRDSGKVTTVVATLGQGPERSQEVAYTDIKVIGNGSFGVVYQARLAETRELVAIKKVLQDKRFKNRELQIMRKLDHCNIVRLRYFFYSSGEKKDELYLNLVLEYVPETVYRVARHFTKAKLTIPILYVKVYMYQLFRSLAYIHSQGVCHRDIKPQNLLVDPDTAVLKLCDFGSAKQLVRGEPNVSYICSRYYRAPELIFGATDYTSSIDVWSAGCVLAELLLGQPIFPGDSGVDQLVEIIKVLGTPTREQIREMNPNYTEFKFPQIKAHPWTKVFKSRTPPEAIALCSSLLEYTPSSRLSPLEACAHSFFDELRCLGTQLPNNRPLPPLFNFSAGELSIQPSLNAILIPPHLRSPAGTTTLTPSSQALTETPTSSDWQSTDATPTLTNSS
T1 sequence (Q13555 whole entry): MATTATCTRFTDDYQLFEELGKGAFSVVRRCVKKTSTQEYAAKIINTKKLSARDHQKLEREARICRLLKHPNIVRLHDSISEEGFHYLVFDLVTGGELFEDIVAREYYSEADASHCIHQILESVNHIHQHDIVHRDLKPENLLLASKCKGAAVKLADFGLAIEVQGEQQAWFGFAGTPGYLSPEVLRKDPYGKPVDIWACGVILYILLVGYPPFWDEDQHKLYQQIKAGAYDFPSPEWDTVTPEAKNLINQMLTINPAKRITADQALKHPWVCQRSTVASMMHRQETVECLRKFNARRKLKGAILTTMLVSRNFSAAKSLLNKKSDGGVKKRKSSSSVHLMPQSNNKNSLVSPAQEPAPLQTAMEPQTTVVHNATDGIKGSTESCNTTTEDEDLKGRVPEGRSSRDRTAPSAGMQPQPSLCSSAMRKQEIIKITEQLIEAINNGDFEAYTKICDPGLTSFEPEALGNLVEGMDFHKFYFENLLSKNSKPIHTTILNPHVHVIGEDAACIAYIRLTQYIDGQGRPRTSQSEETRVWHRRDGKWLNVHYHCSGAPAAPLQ

Row | Structure (SMILES) | residual kinase activity (CAMK2G; 0.3 µM) | residual kinase activity (CDK17/p35NCK; 0.3 µM) | residual kinase activity (CDK6/CycD2; 0.3 µM) | residual kinase activity (CDK6/CycD3; 0.3 µM) | residual kinase activity (CK2α1; 0.3 µM) | residual kinase activity (DYRK1A; 0.3 µM) | residual kinase activity (EPHA2; 0.3 µM) | residual kinase activity (GSK3α; 0.3 µM) | residual kinase activity (HRI; 0.3 µM) | residual kinase activity (LCK; 0.3 µM) | residual kinase activity (MARK3; 0.3 µM) | residual kinase activity (PAK4; 0.3 µM) | residual kinase activity (ROS; 0.3 µM) | residual kinase activity (TAOK2; 0.3 µM) | also measured
1 | COc1ccnc2[nH]cc(-c3cc(N)nc(N)c3)c12 [meriolin 16] | 82 % of control | 24 % of control | 76 % of control | 98 % of control | 104 % of control | 2 % of control | 101 % of control | 93 % of control | 90 % of control | 91 % of control | 86 % of control | 74 % of control | 81 % of control | 89 % of control | residual kinase activity (CAMK2G; 0.03 µM): 94 % of control; residual kinase activity (CDK17/p35NCK; 0.03 µM): 46 % of control; residual kinase activity (CDK6/CycD2; 0.03 µM): 93 % of control; residual kinase activity (CDK6/CycD3; 0.03 µM): 88 % of control; residual kinase activity (CK2α1; 0.03 µM): 106 % of control; residual kinase activity (DYRK1A; 0.03 µM): 11 % of control; residual kinase activity (EPHA2; 0.03 µM): 109 % of control; residual kinase activity (GSK3α; 0.03 µM): 99 % of control; residual kinase activity (HRI; 0.03 µM): 98 % of control; residual kinase activity (LCK; 0.03 µM): 87 % of control; residual kinase activity (MARK3; 0.03 µM): 99 % of control; residual kinase activity (PAK4; 0.03 µM): 86 % of control; residual kinase activity (ROS; 0.03 µM): 92 % of control; residual kinase activity (TAOK2; 0.03 µM): 107 % of control
2 | c1ccc(CNc2cc(-c3c[nH]c4ncccc34)ccn2)cc1 [meriolin 36] | 34 % of control | 20 % of control | 47 % of control | 76 % of control | 99 % of control | 7 % of control | 101 % of control | 41 % of control | 93 % of control | 61 % of control | 89 % of control | 56 % of control | 26 % of control | 60 % of control | residual kinase activity (CAMK2G; 3 µM): 6 % of control; residual kinase activity (CDK17/p35NCK; 3 µM): 10 % of control; residual kinase activity (CDK6/CycD2; 3 µM): 10 % of control; residual kinase activity (CDK6/CycD3; 3 µM): 26 % of control; residual kinase activity (CK2α1; 3 µM): 53 % of control; residual kinase activity (DYRK1A; 3 µM): 0 % of control; residual kinase activity (EPHA2; 3 µM): 72 % of control; residual kinase activity (GSK3α; 3 µM): 7 % of control; residual kinase activity (HRI; 3 µM): 71 % of control; residual kinase activity (LCK; 3 µM): 18 % of control; residual kinase activity (MARK3; 3 µM): 48 % of control; residual kinase activity (PAK4; 3 µM): 16 % of control; residual kinase activity (ROS; 3 µM): 5 % of control; residual kinase activity (TAOK2; 3 µM): 19 % of control
